According to publication PMC5218480 (PLoS ONE, 2017):

Tested on: MV-4-11 cells
Experiment: Gene expression microarray analysis (Affymetrix PrimeView) and GSEA
Type: cell-based, human
Parameters: RFU PODN (11730768_x_at) / Fold change /veh PODN (11730768_x_at) / RFU LINC00158 (11744669_a_at) / Fold change /veh LINC00158 (11744669_a_at) / RFU DUSP10 (11751237_a_at) / Fold change /veh DUSP10 (11751237_a_at) / RFU ID3 (11757404_x_at) / Fold change /veh ID3 (11757404_x_at) / RFU PLEKHG5 (11737974_s_at) / Fold change /veh PLEKHG5 (11737974_s_at) / RFU LRRC4B (11730491_at) / Fold change /veh LRRC4B (11730491_at) / RFU GIMAP4 (11747438_a_at) / Fold change /veh GIMAP4 (11747438_a_at) / RFU KRT8 (11758183_x_at) / Fold change /veh KRT8 (11758183_x_at) / RFU CNN1 (11734310_a_at) / Fold change /veh CNN1 (11734310_a_at) / RFU VPS37D (11726825_at) / Fold change /veh VPS37D (11726825_at) / RFU C10orf10 (11716522_x_at) / Fold change /veh C10orf10 (11716522_x_at) / RFU KIR2DL2 /// KIR2DL4 /// KIR2DL5A /// KIR2DL5B /// KIR2DS1 /// KIR2DS2 /// KIR2DS3 /// KIR2DS4 /// KIR3DL3 /// KIR3DL3 /// KIR3DS1 (11738374_at) / Fold change /veh KIR2DL2 /// KIR2DL4 /// KIR2DL5A /// KIR2DL5B /// KIR2DS1 /// KIR2DS2 /// KIR2DS3 /// KIR2DS4 /// KIR3DL3 /// KIR3DL3 /// KIR3DS1 (11738374_at) / RFU C1QL1 (11718748_at) / Fold change /veh C1QL1 (11718748_at) / RFU TMPRSS4 (11747572_a_at) / Fold change /veh TMPRSS4 (11747572_a_at) / RFU HAMP (11756126_x_at) / Fold change /veh HAMP (11756126_x_at) / RFU RNFT2 (11725882_a_at) / Fold change /veh RNFT2 (11725882_a_at) / RFU NR4A2 (11747474_a_at) / Fold change /veh NR4A2 (11747474_a_at) / RFU ABCC12 (11746883_a_at) / Fold change /veh ABCC12 (11746883_a_at) / RFU TMEM136 (11760407_x_at) / Fold change /veh TMEM136 (11760407_x_at) / RFU CLDN22 /// WWC2 (11732394_at) / Fold change /veh CLDN22 /// WWC2 (11732394_at) / RFU HLA-DPB1 (11760878_x_at) / Fold change /veh HLA-DPB1 (11760878_x_at) / RFU SPINT1 (11716480_a_at) / Fold change /veh SPINT1 (11716480_a_at) / RFU GAP43 (11754022_s_at) / Fold change /veh GAP43 (11754022_s_at) / RFU A4GNT (11735810_at) / Fold change /veh A4GNT (11735810_at) / RFU PRB3 (11715151_x_at) / Fold change /veh PRB3 (11715151_x_at) / RFU TUBB4B (11761932_at) / Fold change /veh TUBB4B (11761932_at) / RFU CAPN14 (11732068_a_at) / Fold change /veh CAPN14 (11732068_a_at) / RFU TMCC2 (11721928_a_at) / Fold change /veh TMCC2 (11721928_a_at) / RFU IRGQ (11745062_a_at) / Fold change /veh IRGQ (11745062_a_at) / RFU FAM174B (11720279_a_at) / Fold change /veh FAM174B (11720279_a_at) / RFU TMPRSS4 (11748680_a_at) / Fold change /veh TMPRSS4 (11748680_a_at) / RFU FAM212B (11763350_a_at) / Fold change /veh FAM212B (11763350_a_at) / RFU PLEKHG5 (11743358_a_at) / Fold change /veh PLEKHG5 (11743358_a_at) / RFU ZSCAN30 (11745921_a_at) / Fold change /veh ZSCAN30 (11745921_a_at) / RFU CMKLR1 (11741424_a_at) / Fold change /veh CMKLR1 (11741424_a_at) / RFU LOC101060620 /// MAPK8IP1 (11723275_at) / Fold change /veh LOC101060620 /// MAPK8IP1 (11723275_at) / RFU SPTSSB (11747773_x_at) / Fold change /veh SPTSSB (11747773_x_at) / RFU PRSS12 (11739890_at) / Fold change /veh PRSS12 (11739890_at) / RFU BIN1 (11741810_x_at) / Fold change /veh BIN1 (11741810_x_at) / RFU WNT11 (11732464_a_at) / Fold change /veh WNT11 (11732464_a_at) / RFU C10orf10 (11716521_a_at) / Fold change /veh C10orf10 (11716521_a_at) / RFU C5orf56 (11738089_at) / Fold change /veh C5orf56 (11738089_at) / RFU CYB561 (11721691_x_at) / Fold change /veh CYB561 (11721691_x_at) / RFU ANKRD19P (11752326_a_at) / Fold change /veh ANKRD19P (11752326_a_at) / RFU OR2T12 /// OR2T33 /// OR2T8 (11738714_s_at) / Fold change /veh OR2T12 /// OR2T33 /// OR2T8 (11738714_s_at) / RFU VCAN (11748164_a_at) / Fold change /veh VCAN (11748164_a_at) / RFU JSRP1 (11732532_at) / Fold change /veh JSRP1 (11732532_at) / RFU KRTAP10-11 (11738290_x_at) / Fold change /veh KRTAP10-11 (11738290_x_at) / RFU MYO3A (11730013_a_at) / Fold change /veh MYO3A (11730013_a_at) / RFU EBF3 (11725865_a_at) / Fold change /veh EBF3 (11725865_a_at) / RFU CAMK2N1 (11719241_x_at) / Fold change /veh CAMK2N1 (11719241_x_at) / RFU C5orf56 (11738088_a_at) / Fold change /veh C5orf56 (11738088_a_at) / RFU OLFML3 (11715873_a_at) / Fold change /veh OLFML3 (11715873_a_at) / RFU LOC100653217 /// NTM (11731650_a_at) / Fold change /veh LOC100653217 /// NTM (11731650_a_at) / RFU MAPK11 (11762145_a_at) / Fold change /veh MAPK11 (11762145_a_at) / RFU FIZ1 (11724087_x_at) / Fold change /veh FIZ1 (11724087_x_at) / RFU OASL (11726364_x_at) / Fold change /veh OASL (11726364_x_at) / RFU SOX15 (11748057_x_at) / Fold change /veh SOX15 (11748057_x_at) / RFU CD79A (11719716_a_at) / Fold change /veh CD79A (11719716_a_at) / RFU HIST1H1D (11736915_at) / Fold change /veh HIST1H1D (11736915_at) / RFU CASKIN2 (11723855_a_at) / Fold change /veh CASKIN2 (11723855_a_at) / RFU LOC730098 (11760151_x_at) / Fold change /veh LOC730098 (11760151_x_at) / RFU OR4N2 (11742367_at) / Fold change /veh OR4N2 (11742367_at) / RFU PRRT2 (11749266_a_at) / Fold change /veh PRRT2 (11749266_a_at) / RFU SNX32 (11753110_a_at) / Fold change /veh SNX32 (11753110_a_at) / RFU CDHR5 (11726645_a_at) / Fold change /veh CDHR5 (11726645_a_at) / RFU RCAN1 (11760418_a_at) / Fold change /veh RCAN1 (11760418_a_at) / RFU FAM167A (11723789_a_at) / Fold change /veh FAM167A (11723789_a_at) / RFU FAM26E (11764081_at) / Fold change /veh FAM26E (11764081_at) / RFU ISYNA1 (11749810_s_at) / Fold change /veh ISYNA1 (11749810_s_at) / RFU ACY1 (11761880_at) / Fold change /veh ACY1 (11761880_at) / RFU 11764098_at / Fold change /veh 11764098_at / RFU SAMD14 (11745864_x_at) / Fold change /veh SAMD14 (11745864_x_at) / RFU NPB (11741838_a_at) / Fold change /veh NPB (11741838_a_at) / RFU TMPRSS6 (11731388_a_at) / Fold change /veh TMPRSS6 (11731388_a_at) / RFU KRTAP10-2 (11738614_at) / Fold change /veh KRTAP10-2 (11738614_at) / RFU ARHGAP8 /// PRR5-ARHGAP8 (11727945_x_at) / Fold change /veh ARHGAP8 /// PRR5-ARHGAP8 (11727945_x_at) / RFU KRTAP5-7 /// NADSYN1 (11734609_at) / Fold change /veh KRTAP5-7 /// NADSYN1 (11734609_at) / RFU RASL12 (11751679_a_at) / Fold change /veh RASL12 (11751679_a_at) / RFU CDKN2B (11736163_a_at) / Fold change /veh CDKN2B (11736163_a_at) / RFU PRF1 (11729649_at) / Fold change /veh PRF1 (11729649_at) / RFU, ZNF638 /// ZNF638-IT1 / Fold change vs veh, ZNF638 /// ZNF638-IT1 / RFU, PANK3 / Fold change vs veh, PANK3 / RFU, SH3YL1 / Fold change vs veh, SH3YL1 / RFU, ZEB2 / Fold change vs veh, ZEB2 / RFU, NRIP1 / Fold change vs veh, NRIP1 / RFU, PTTG1IP / Fold change vs veh, PTTG1IP / RFU, CAPN2 / Fold change vs veh, CAPN2 / RFU, MED14 / Fold change vs veh, MED14 / RFU, SNORA58 / Fold change vs veh, SNORA58 / RFU, C1orf63 / Fold change vs veh, C1orf63 / RFU, LRRFIP1 / Fold change vs veh, LRRFIP1 / RFU, NDUFAF7 / Fold change vs veh, NDUFAF7 / RFU, SLC12A2 / Fold change vs veh, SLC12A2 / RFU, IBTK / Fold change vs veh, IBTK / RFU, ESF1 / Fold change vs veh, ESF1 / Fold change vs veh, TMEM50B / RFU, TAOK1 / Fold change vs veh, TAOK1 / RFU, ACBD3 / Fold change vs veh, ACBD3 / RFU, TMA16 / Fold change vs veh, TMA16 / RFU, RWDD3 / Fold change vs veh, RWDD3 / RFU, BCAT1 / Fold change vs veh, BCAT1 / RFU, EDEM3 / Fold change vs veh, EDEM3 / RFU, TMEM33 / Fold change vs veh, TMEM33 / RFU, WDR75 / Fold change vs veh, WDR75 / RFU, AHCTF1 / Fold change vs veh, AHCTF1 / RFU, TFRC / Fold change vs veh, TFRC / RFU, ZDHHC17 / Fold change vs veh, ZDHHC17 / RFU, NOM1 / Fold change vs veh, NOM1 / RFU, ARL8B / Fold change vs veh, ARL8B / RFU, ZBTB11 / Fold change vs veh, ZBTB11 / RFU, TAMM41 / Fold change vs veh, TAMM41 / RFU, KIAA1704 /// LOC100996395 / Fold change vs veh, KIAA1704 /// LOC100996395 / RFU, ING1 / Fold change vs veh, ING1 / RFU, TRMT61B / Fold change vs veh, TRMT61B / RFU, FUBP3 / Fold change vs veh, FUBP3 / RFU, TP53 / Fold change vs veh, TP53 / RFU, TNKS2 / Fold change vs veh, TNKS2 / RFU, ZFP14 / Fold change vs veh, ZFP14 / RFU, ACTR2 / Fold change vs veh, ACTR2 / RFU, PPP3R1 / Fold change vs veh, PPP3R1 / RFU, PIK3R1 / Fold change vs veh, PIK3R1 / RFU, HNRNPA1 / Fold change vs veh, HNRNPA1 / RFU, RNF170 / Fold change vs veh, RNF170 / RFU, ZNF28 / Fold change vs veh, ZNF28 / RFU, RNGTT / Fold change vs veh, RNGTT / RFU, OGT / Fold change vs veh, OGT / RFU, BRD1 / Fold change vs veh, BRD1 / RFU, MARS / Fold change vs veh, MARS / RFU, ZNF655 / Fold change vs veh, ZNF655 / RFU, FAHD1 / Fold change vs veh, FAHD1 / RFU, BDP1 / Fold change vs veh, BDP1 / RFU, LRRCC1 / Fold change vs veh, LRRCC1 / RFU, ARID1A / Fold change vs veh, ARID1A / RFU, ZNF146 / Fold change vs veh, ZNF146 / RFU, ZNF330 / Fold change vs veh, ZNF330 / RFU, GPN3 / Fold change vs veh, GPN3 / RFU, C9orf123 / Fold change vs veh, C9orf123 / RFU, N4BP2L2 / Fold change vs veh, N4BP2L2 / RFU, ARFIP1 / Fold change vs veh, ARFIP1 / RFU, FAM179B / Fold change vs veh, FAM179B / RFU, BCL10 / Fold change vs veh, BCL10 / RFU, UHRF1BP1L / Fold change vs veh, UHRF1BP1L / RFU, BET1 / Fold change vs veh, BET1 / RFU, CNOT2 / Fold change vs veh, CNOT2 / RFU, ZNF268 / Fold change vs veh, ZNF268 / Fold change vs veh, ZNF507 / RFU, DGCR2 / Fold change vs veh, DGCR2 / RFU, WDSUB1 / Fold change vs veh, WDSUB1 / Fold change vs veh, HSP90B1 /// MIR3652 / RFU, ADSS / Fold change vs veh, ADSS / RFU, GK / Fold change vs veh, GK / RFU, ZNF148 / Fold change vs veh, ZNF148 / RFU, TAF9 / Fold change vs veh, TAF9 / RFU, SLC1A5 / Fold change vs veh, SLC1A5 / RFU, SLMO2 / Fold change vs veh, SLMO2 / RFU, ABCC4 / Fold change vs veh, ABCC4 / RFU, LOC101060439 /// RAP1B / Fold change vs veh, LOC101060439 /// RAP1B / RFU, RFX7 / Fold change vs veh, RFX7 / RFU, GTPBP10 / Fold change vs veh, GTPBP10 / RFU, CNEP1R1 / Fold change vs veh, CNEP1R1 / RFU, BIVM-ERCC5 /// ERCC5 / Fold change vs veh, BIVM-ERCC5 /// ERCC5 / RFU, ILF3 / Fold change vs veh, ILF3 / RFU 11762660_at / Fold change /veh 11762660_at / RFU VCAN (11757783_s_at) / Fold change /veh VCAN (11757783_s_at) / RFU DDX43 (11728927_at) / Fold change /veh DDX43 (11728927_at) / RFU KRT8 (11758188_x_at) / Fold change /veh KRT8 (11758188_x_at) / RFU NKD1 (11759106_at) / Fold change /veh NKD1 (11759106_at) / RFU SRD5A1 (11742802_a_at) / Fold change /veh SRD5A1 (11742802_a_at) / RFU TPSAB1 /// TPSB2 (11721975_s_at) / Fold change /veh TPSAB1 /// TPSB2 (11721975_s_at) / RFU GSTM3 (11746129_a_at) / Fold change /veh GSTM3 (11746129_a_at) / RFU IL23R (11737362_x_at) / Fold change /veh IL23R (11737362_x_at) / RFU TMEM51 (11727254_a_at) / Fold change /veh TMEM51 (11727254_a_at) / RFU PIWIL2 (11732686_x_at) / Fold change /veh PIWIL2 (11732686_x_at) / RFU ORM1 (11744905_x_at) / Fold change /veh ORM1 (11744905_x_at) / RFU CCDC152 (11743942_at) / Fold change /veh CCDC152 (11743942_at) / RFU ECM1 (11717891_a_at) / Fold change /veh ECM1 (11717891_a_at) / RFU IL23R (11748794_a_at) / Fold change /veh IL23R (11748794_a_at) / RFU TNFAIP8L3 (11732012_x_at) / Fold change /veh TNFAIP8L3 (11732012_x_at) / RFU MBOAT4 (11741988_at) / Fold change /veh MBOAT4 (11741988_at) / RFU 11764193_at / Fold change /veh 11764193_at / RFU TMEM53 (11763286_at) / Fold change /veh TMEM53 (11763286_at) / RFU MAGEB2 (11727129_at) / Fold change /veh MAGEB2 (11727129_at) / RFU TMEM200A (11744735_a_at) / Fold change /veh TMEM200A (11744735_a_at) / RFU CCDC152 (11751479_a_at) / Fold change /veh CCDC152 (11751479_a_at) / RFU FAM211A (11726209_a_at) / Fold change /veh FAM211A (11726209_a_at) / RFU RGS16 (11746705_a_at) / Fold change /veh RGS16 (11746705_a_at) / RFU VCAN (11755009_s_at) / Fold change /veh VCAN (11755009_s_at) / RFU RHOB (11743442_s_at) / Fold change /veh RHOB (11743442_s_at) / RFU RGS16 (11720943_a_at) / Fold change /veh RGS16 (11720943_a_at) / RFU RGS16 (11720944_at) / Fold change /veh RGS16 (11720944_at) / RFU, VPS4B / Fold change vs veh, VPS4B / RFU, CREB1 / Fold change vs veh, CREB1 / RFU, DNAJC13 / Fold change vs veh, DNAJC13 / RFU, GNAQ / Fold change vs veh, GNAQ / RFU, CDK5R1 / Fold change vs veh, CDK5R1 / RFU, ZRANB3 / Fold change vs veh, ZRANB3 / RFU, CUL4A / Fold change vs veh, CUL4A / RFU, CCNY / Fold change vs veh, CCNY / RFU, UFL1 / Fold change vs veh, UFL1 / RFU, COG3 / Fold change vs veh, COG3 / RFU, DIAPH2 / Fold change vs veh, DIAPH2 / RFU, SKA2 / Fold change vs veh, SKA2 / RFU, AFF3 / Fold change vs veh, AFF3 / RFU, LMF1 / Fold change vs veh, LMF1 / RFU, IPO11 / Fold change vs veh, IPO11 / RFU, DFFB / Fold change vs veh, DFFB / RFU, FOXP1 / Fold change vs veh, FOXP1 / RFU, CARD8 / Fold change vs veh, CARD8 / RFU, STRN3 / Fold change vs veh, STRN3 / RFU, ADK / Fold change vs veh, ADK / RFU, RASSF2 / Fold change vs veh, RASSF2 / RFU, WIPF1 / Fold change vs veh, WIPF1 / RFU, LARP1B / Fold change vs veh, LARP1B / RFU, RASA1 / Fold change vs veh, RASA1 / RFU, RB1 / Fold change vs veh, RB1 / RFU, PPFIA1 / Fold change vs veh, PPFIA1 / RFU, MAT2A / Fold change vs veh, MAT2A / RFU, CCT5 / Fold change vs veh, CCT5 / RFU, WDR92 / Fold change vs veh, WDR92 / RFU, CUX1 / Fold change vs veh, CUX1 / RFU, TTC7A / Fold change vs veh, TTC7A / RFU, TMEM135 / Fold change vs veh, TMEM135 / RFU, DEPTOR / Fold change vs veh, DEPTOR / RFU, CPM / Fold change vs veh, CPM / RFU, DNAJB6 / Fold change vs veh, DNAJB6 / RFU, CACNA2D3 / Fold change vs veh, CACNA2D3 / RFU, DTX4 / Fold change vs veh, DTX4 / RFU, TFCP2 / Fold change vs veh, TFCP2 / RFU, GMCL1 /// GMCL1P1 / Fold change vs veh, GMCL1 /// GMCL1P1 / RFU, AEBP2 / Fold change vs veh, AEBP2 / RFU, SNHG1 /// SNORD22 /// SNORD25 /// SNORD26 /// SNORD27 /// SNORD28 /// SNORD29 /// SNORD31 / Fold change vs veh, SNHG1 /// SNORD22 /// SNORD25 /// SNORD26 /// SNORD27 /// SNORD28 /// SNORD29 /// SNORD31 / Fold change (Aza/veh), C12orf56 (ProbeSet 11735607_a_at) / Fold change (ACY-1035/veh), C12orf56 (ProbeSet 11735607_a_at) / Fold change (Aza/veh), FGFR1OP (ProbeSet 11751329_s_at) / Fold change (ACY-1035/veh), FGFR1OP (ProbeSet 11751329_s_at) / Fold change (Aza/veh), VPS36 (ProbeSet 11739960_a_at) / Fold change (ACY-1035/veh), VPS36 (ProbeSet 11739960_a_at) / RFU SYPL1 (11715823_x_at) / Fold change /veh SYPL1 (11715823_x_at) / RFU IGFBP7 (11715501_s_at) / Fold change /veh IGFBP7 (11715501_s_at) / RFU REEP3 (11722064_at) / Fold change /veh REEP3 (11722064_at) / RFU IGLL1 (11728026_x_at) / Fold change /veh IGLL1 (11728026_x_at): dose or concentration left out as unconfirmed
Conditions: ProbeSet 11728443_a_at; LIST B

SMILES: Nc1ccc(-c2cccs2)cc1NC(=O)c1ccc2c(c1)cc(C1CC1)n2CCN1CCOCC1 [ACY-1035]
- RFU, TAOK1: 54.83 RFU
